# The supplement of paper PMC11061612
# Assays:
# Assay in all cases: Bliss excess, mean over the matrix (fraction); higher = more synergy
# [1] = system: TT (Thyroid Gland Carcinoma)
# How it was run: (§1)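 Cell lines in DMEM/F12 or RPMI with 10% FBS were plated in 1536-well plates, held 24 hours at 37°C, 5% CO2, then given two-drug dose matrices for 72 hours (DMSO typically 0.2%). Viability was read by CellTiter-Glo 2.0 luminescence and scaled as inhibition from 0 (vehicle wells) to 1 (blank wells). Combination Emax is the second-highest inhibition in the matrix; Bliss excess is observed combination effect minus expected EA + EB − EA·EB, EA and EB being single-agent effects.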
# GI-ME-N (Neuroblastoma) = system: GI-ME-N (Neuroblastoma)
# How it was run: as §1
# [2] = system: PANC-10-05 (Pancreatic Carcinoma)
# How it was run: as §1
# [3] = system: NCI-H1666 (Lung Adenocarcinoma)
# How it was run: as §1
# [4] = system: A3-KAW (B-Cell Non-Hodgkin's Lymphoma)
# How it was run: as §1
# [5] = system: VCaP (Prostate Carcinoma)
# How it was run: as §1
# [6] = system: HCC1954 (Breast Carcinoma)
# How it was run: as §1
# [7] = system: COR-L311 (Small Cell Lung Carcinoma)
# How it was run: as §1
# [8] = system: COLO-824 (Breast Carcinoma)
# How it was run: as §1
# A498 (Kidney Carcinoma) = system: A498 (Kidney Carcinoma)
# How it was run: as §1
# [9] = system: NCI-H1650 (Lung Adenocarcinoma)
# How it was run: as §1
# [10] = system: SK-MES-1 (Squamous Cell Lung Carcinoma)
# How it was run: as §1
# [11] = system: CAPAN-2 (Pancreatic Carcinoma)
# How it was run: as §1
# [12] = system: NCI-H1581 (Non-Small Cell Lung Carcinoma)
# How it was run: as §1
# LN-405 (Glioblastoma) = system: LN-405 (Glioblastoma)
# How it was run: as §1
# NY (Osteosarcoma) = system: NY (Osteosarcoma)
# How it was run: as §1
# [13] = system: NCI-H64 (Small Cell Lung Carcinoma)
# How it was run: as §1
# ARH-77 (Non-Cancerous) = system: ARH-77 (Non-Cancerous)
# How it was run: as §1
# [14] = system: JSC-1 (B-Cell Non-Hodgkin's Lymphoma)
# How it was run: as §1
# IGR-37 (Melanoma) = system: IGR-37 (Melanoma)
# How it was run: as §1
SMILES,Bliss excess [1],Bliss excess (GI-ME-N (Neuroblastoma)),Bliss excess [2],Bliss excess [3],Bliss excess [4],Bliss excess [5],Bliss excess [6],Bliss excess [7],Bliss excess [8],Bliss excess (A498 (Kidney Carcinoma)),Bliss excess [9],Bliss excess [10],Bliss excess [11],Bliss excess [12],Bliss excess (LN-405 (Glioblastoma)),Bliss excess (NY (Osteosarcoma)),Bliss excess [13],Bliss excess (ARH-77 (Non-Cancerous)),Bliss excess [14],Bliss excess (IGR-37 (Melanoma))
"Cn1cnc2c(F)c(Nc3ccc(Br)cc3Cl)c(C(=O)NOCCO)cc21 [Selumetinib] + CCN(CCO)CCCOc1ccc2c(Nc3cc(CC(=O)Nc4cccc(F)c4)[nH]n3)ncnc2c1 [AZD2811] (first compound max 10 µM, 7x7, partner max 1 µM)",-0.0472,-0.0614,-0.0367,-0.0506,0.165,-0.0336,-0.0098,-0.0546,-0.0218,0.002,-0.0333,-0.048,0.0517,-0.0775,-0.0367,-0.0102,0.0312,0.0498,0.203,-0.0274
"CC(=O)c1c(C)c2cnc(Nc3ccc(N4CCNCC4)cn3)nc2n(C2CCCC2)c1=O [Palbociclib] + Cc1c2c(nn1C)CSCc1cc(n(C)n1)CSc1cc(c3ccccc3c1)OCCCc1c(C(=O)O)n(C)c3c-2c(Cl)ccc13 [AZD5991] (first compound max 10 µM, 7x7, partner max 1 µM)",0.0684,-0.0873,-0.0768,-0.0198,-0.0158,-0.0284,-0.09,-0.0139,-0.0768,-0.0779,-0.0409,-0.0463,-0.0593,-0.0173,-0.0445,-0.0358,-0.0049,-0.0248,-0.0567,-0.0335
"CCN(CCO)CCCOc1ccc2c(Nc3cc(CC(=O)Nc4cccc(F)c4)[nH]n3)ncnc2c1 [AZD2811] + C=CCn1c(=O)c2cnc(Nc3ccc(N4CCN(C)CC4)cc3)nc2n1-c1cccc(C(C)(C)O)n1 [AZD1775] (first compound max 1 µM, partner max 1 µM)",-0.0155,-0.0112,-0.021,-0.0282,0.0539,-0.0369,-0.0269,-0.176,-0.0967,-0.0494,-0.0277,-0.0112,-0.0462,0.154,-0.0312,-0.0363,-0.0413,0.024,-0.0038,-0.023
"CN(CCO)CC[C@H](CSc1ccccc1)Nc1ccc(S(=O)(=O)NC(=O)c2ccc(N3CCC([C@@H](O)c4ccccc4-c4ccc(Cl)cc4)CC3)cc2)cc1S(=O)(=O)C(F)(F)F [AZD4320] + C[C@@H](Nc1cc(F)cc(F)c1)c1cc(C(=O)N(C)C)cc2c(=O)cc(N3CCOCC3)oc12 [AZD8186] (first compound max 1 µM, 7x7, partner max 3 µM)",-0.061,0.0272,-0.073,0.0153,0.0229,0.0559,0.0622,0.0588,0.0422,0.0903,0.0346,0.031,-0.0099,0.0052,-0.0504,-0.005,-0.0372,0.0067,0.0639,0.029
"NC1(C(=O)N[C@@H](CCO)c2ccc(Cl)cc2)CCN(c2ncnc3[nH]ccc23)CC1 [Capivasertib] + CC(=O)c1c(C)c2cnc(Nc3ccc(N4CCNCC4)cn3)nc2n(C2CCCC2)c1=O [Palbociclib] (first compound max 10 µM, 7x7, partner max 10 µM)",-0.001,-0.0823,-0.0526,0.0086,0.0548,0.0119,-0.0292,-0.0489,-0.0495,-0.0294,-0.0223,0.0137,-0.0164,0.0213,-0.0295,-0.0134,-0.0332,-0.0211,-0.0107,-0.0344
"COc1nnc2ccc(N3CCC(c4ccc(OCCN5CCN(C)C(=O)[C@H]5C)cc4)CC3)nn12 [AZD5153] + CCN(CCO)CCCOc1ccc2c(Nc3cc(CC(=O)Nc4cccc(F)c4)[nH]n3)ncnc2c1 [AZD2811] (first compound max 1 µM, 7x7, partner max 1 µM)",-0.0755,0.0022,-0.0713,-0.0376,0.0269,-0.0345,-0.011,-0.0357,-0.0422,-0.0453,-0.0868,-0.0546,-0.0286,-0.143,-0.0761,-0.0314,0.0609,-0.0471,0.0038,0.0031
"Cc1c2c(nn1C)CSCc1cc(n(C)n1)CSc1cc(c3ccccc3c1)OCCCc1c(C(=O)O)n(C)c3c-2c(Cl)ccc13 [AZD5991] + Cn1cnc2c(F)c(Nc3ccc(Br)cc3Cl)c(C(=O)NOCCO)cc21 [Selumetinib] (first compound max 1 µM, 7x7, partner max 3 µM)",-0.0526,-0.06,-0.0186,0.0499,0.045,-0.0213,0.0333,-0.0212,-0.0049,0.0133,-0.0083,0.0132,0.0129,0.0803,0.003,-0.0312,-0.026,-0.0069,0.027,0.0044
